Reference: patent publication US20180092934A1, “COMPOSITION FOR DNA PROTECTION” (priority 2016, published 2018)

Legend:
[1] = system: 8-hydroxy-2-deoxyguanosine (8-OHdG); assay: Serum 8-OHdG ELISA, alcohol-induced DNA damage in rats; type: in vivo, Male Wistar albino rats; details: single oral dose in 30% alcohol 4 gm/kg, 4 hr data, n = 4
Description: In nuclear and mitochondrial DNA, 8-hydroxy-2′-deoxyguanosine (8-OHdG) is one of the predominant forms of free radical-induced oxidative lesions, and is used as a biomarker for oxidative stress. Rat 8-OHdG ELISA kit from Elabscience is used for the assay. (Valavanidis A et al (2009). 8-hydroxy-2′-deoxyguanosine (8-OHdG): A critical biomarker of oxidative stress and carcinogenesis. J Environ Sci Health C Environ Carcinog Ecotoxicol Rev. 27(2):[…]).
(§1) Saline/Alcohol (4.0 gm/kg/day, p.o.)/Formulation with alcohol (4.0 gm/kg/day, p.o.) were administered (fed orally by orogastric cannula) for one day. Blood samples were collected before administration of the Saline/Alcohol/Formulation with alcohol and designated as ‘0’ hour, then 2 and 4 hours after the dose. For comet assay one part of the blood was collected in heparinised tube and the other part was allowed to clot to get serum for 8-OHdG assay. Single cell gel electrophoresis (SCGE, the Comet assay) was carried out using whole blood (Cheng-Hung Chuang, Miao-Lin Hu. Use of whole blood directly for single-cell gel electrophoresis (comet) assay in vivo and white blood cells for in vitro assay. Mutation Research; 564 (2004) 75-82.). In short, 15 μl of whole blood was mixed with low melting agarose and fixed on a microscope slide. Those are then lysed by buffer enriched with detergent and high salt. Concomitant electrophoresis at alkaline pH results in unwinding of DNA followed by structures close to comets, when observed by fluorescence microscopy. The intensity of the comet tail relative to the head presents the number of DNA breaks. The probable basis for this is that loops containing a break lose their super coiling and become free to extend toward the anode. This is followed by visual analysis with staining of DNA and calculating fluorescence to determine the extent of DNA damage (Collins, A. R. (2004). “The comet assay for DNA damage and repair: principles, applications, and limitations”. Mol. Biotechnol. 26 (3): 249-261). 8-hydroxy-2-deoxyguanosine was estimated (8-OHdG) by ELISA kit using competitive-ELISA as the method. The microtiter plate is pre-coated with 8-OHdG. 8-OHdG in the sample or standard competes with a fixed amount of 8-OHdG on the solid phase supporter for sites on the Biotinylated Detection Ab specific to 8-OHdG. Excess conjugate and unbound sample or standard were washed from the plate, and Avidin conjugated to Horseradish Peroxidase (HRP) is added to each microplate well. After incubation a TMB substrate solution is added to each well. The enzyme-substrate reaction is terminated by the addition of a sulphuric acid solution and the color change was measured by plate reader at a wavelength of 450 nm±2 nm. The concentration of 8-OHdG in the samples was then determined by comparing the OD of the samples to the standard curve (Szymańska-Chabowska A et al, Evaluation of DNA Damage in People Occupationally Exposed to Arsenic and Some Heavy Metals. Polish J. of Environ. Stud. Vol. 18, No. 6 (2009), 1131-1139).
(§2) % Protection=1−[(T−NS)/(AL−NS)]×100
(§3) T=Mean value of drug treated, NS=Mean value of normal control, AL=Mean value of alcohol alone.
(§4) Male Wistar albino rats weighing 150-200 g were procured and randomly divided into groups consisting of four (4) animals in each group. DNA damage was induced by alcohol in rats by oral administration of 30% alcohol (4 gm/kg/p.o.) once (single dose) and this group served as the negative control and treated groups received different formulations.
All drug solutions were prepared in 40% aqueous alcohol, adjusting the pH in the range of 5.0-10.0 for evaluation of alcohol induced DNA damage and protection against it. This solution was further diluted with distilled water to obtain 30% aqueous alcoholic solution and administered orally by gavage to different rats group of step (1a). […]

[2] = system: alcohol induced DNA damage; assay: Comet assay (SCGE) on whole blood, alcohol-induced DNA damage in rats; type: in vivo, Male Wistar albino rats; details: single oral dose in 30% alcohol 4 gm/kg, 4 hr data, n = 4
Description: The Single Cell Gel Electrophoresis assay (SCGE, also known as comet assay) is a straightforward and sensitive technique for the detection of DNA damage at the level of the individual eukaryotic cell. It is being used as a standard technique for evaluation of DNA damage/repair, biomonitoring and genotoxicity testing. It involves the encapsulation of cells in a low-melting-point agarose suspension, lysis of the cells in neutral or alkaline (pH>13) conditions, and electrophoresis of the suspended lysed cells. The term “comet” refers to the pattern of DNA migration through the electrophoresis gel, which often resembles a comet (Cheng-Hung Chuang, Miao-Lin Hu. Use of whole blood directly for single-cell gel electrophoresis (comet) assay in vivo and white blood cells for in vitro assay. Mutation Research; 564 (2004) 75-82.).
as §1, §2, §3
as §4, with “formulations. […]” for “formulations.”

For `OC[C@@H](O)[C@@H](O)[C@H](O)[C@H](O)CO` [0.8 Man, D-Mannitol], the “8OHdG Protection” value [1] was 14.20% and the “COMET Protection” value [2] was 9.22%.

In the case of `CC1(C)[C@@H](O[C@H]2O[C@H](C(=O)O)[C@@H](O)[C@H](O)[C@H]2O[C@@H]2O[C@H](C(=O)O)[C@@H](O)[C@H](O)[C@H]2O)CC[C@]2(C)[C@H]3C(=O)C=C4[C@H]5C[C@@](C)(C(=O)O)CC[C@]5(C)CC[C@@]4(C)[C@]3(C)CC[C@@H]12` [0.1 18α-GA, 18α-Glycyrrhizin], the “8OHdG Protection” value [1] is reported as 4.20% and the “COMET Protection” value [2] is reported as 0.59%.

For `CC1(C)[C@@H](O[C@H]2O[C@H](C(=O)O)[C@@H](O)[C@H](O)[C@H]2O[C@@H]2O[C@H](C(=O)O)[C@@H](O)[C@H](O)[C@H]2O)CC[C@]2(C)[C@H]3C(=O)C=C4[C@@H]5C[C@@](C)(C(=O)O)CC[C@]5(C)CC[C@@]4(C)[C@]3(C)CC[C@@H]12` [0.1 18β-GA, 18β-Glycyrrhizin], the “8OHdG Protection” value [1] was 3.55% and the “COMET Protection” value [2] was 0.97%.

`OC[C@@H](O)[C@@H](O)CO` [1.2 Ery, D-Erythritol] was tested, and the “8OHdG Protection” value [1] was 23.08% and the “COMET Protection” value [2] was 18.69%.

With `CC1(C)[C@@H](O[C@H]2O[C@H](C(=O)O)[C@@H](O)[C@H](O)[C@H]2O[C@@H]2O[C@H](C(=O)O)[C@@H](O)[C@H](O)[C@H]2O)CC[C@]2(C)[C@H]3C(=O)C=C4[C@@H]5C[C@@](C)(C(=O)O)CC[C@]5(C)CC[C@@]4(C)[C@]3(C)CC[C@@H]12` [0.3 18β-GA, 18β-Glycyrrhizin] the “8OHdG Protection” value [1] was 11.24% and the “COMET Protection” value [2] was 6.07%.

`CC1(C)[C@@H](O[C@H]2O[C@H](C(=O)O)[C@@H](O)[C@H](O)[C@H]2O[C@@H]2O[C@H](C(=O)O)[C@@H](O)[C@H](O)[C@H]2O)CC[C@]2(C)[C@H]3C(=O)C=C4[C@@H]5C[C@@](C)(C(=O)O)CC[C@]5(C)CC[C@@]4(C)[C@]3(C)CC[C@@H]12` [0.04 18β-GA, 18β-Glycyrrhizin] was tested, and the “8OHdG Protection” value [1] was 0% and the “COMET Protection” value [2] was 0%.

With `CC1(C)[C@@H](O[C@H]2O[C@H](C(=O)O)[C@@H](O)[C@H](O)[C@H]2O[C@@H]2O[C@H](C(=O)O)[C@@H](O)[C@H](O)[C@H]2O)CC[C@]2(C)[C@H]3C(=O)C=C4[C@H]5C[C@@](C)(C(=O)O)CC[C@]5(C)CC[C@@]4(C)[C@]3(C)CC[C@@H]12` [0.3 18α-GA, 18α-Glycyrrhizin] the “8OHdG Protection” value [1] was 10.46% and the “COMET Protection” value [2] was 5.78%.

For `OC[C@@H](O)[C@@H](O)CO` [0.8 Ery, D-Erythritol], the “8OHdG Protection” value [1] was 15.98% and the “COMET Protection” value [2] was 8.25%.

`OC[C@@H](O)[C@@H](O)[C@H](O)[C@H](O)CO` [0.5 Man, D-Mannitol] was tested, and the “8OHdG Protection” value [1] was 7.69% and the “COMET Protection” value [2] was 5.34%.

With `OC[C@@H](O)[C@@H](O)[C@H](O)[C@H](O)CO` [1.2 Man, D-Mannitol] the “8OHdG Protection” value [1] was 24.85% and the “COMET Protection” value [2] was 13.59%.

`OC[C@@H](O)[C@@H](O)CO` [2.5 Ery, D-Erythritol] was tested, and the “8OHdG Protection” value [1] was 37.28% and the “COMET Protection” value [2] was 34.71%.

With `OC[C@@H](O)[C@@H](O)[C@H](O)[C@H](O)CO` [2.5 Man, D-Mannitol] the “8OHdG Protection” value [1] was 40.24% and the “COMET Protection” value [2] was 33.98%.
